Test system: MCA205 mouse tumor cells (sarcoma)
Assay: In vivo combination treatment, MCA205 tumors in human CD39 KI mice
[1] = first experimental series: oxaliplatin at day 5, murine I-394 twice a week from day 4
[2] = second experimental series, repeated oxaliplatin

Protocol: 1×10^6 MCA205 mouse tumor cells (sarcoma) were subcutaneously engrafted in the right flank of mice genetically modified to express human CD39 (CD39KI mice). […] Tumors were measured twice a week with a caliper (L: length and w: width) and tumor volume was calculated with the formula (L×w2)/2. Mice were sacrificed when tumor volume was above 1800 mm^3 or when tumors were highly necrosed. The human CD39 KI mice were engrafted with MCA205 tumor cells at day 0.
In a first experimental series, mice were treated at day 5 post tumor cell engraftment with either control (1 group) PBS, or oxaliplatin chemotherapy (2 groups). In parallel, one group of mice treated with oxaliplatin was injected twice a week with anti-CD39 antibody, with the anti-CD39 antibody treatment starting just one day before oxaliplatin treatment (at day 4).

In the case of O=C1[O][Pt]2([NH][C@@H]3CCCC[C@H]3[NH]2)[O]C1=O [oxaliplatin], the “Complete Response (CR), number of mice” value [1] is reported as “no CR”, the Survival median [1] is reported as 25 days and the tumor free mice (second experimental series, 40 days post tumor engraftment) is reported as 2/12. For the same molecule, the “CR (complete responses), number of mice” value [2] was 2, the “partial responses (PR), number of mice” value [2] was 3 and the “effect on tumor growth / tumor volume and mice survival” value (second experimental series: oxaliplatin injected twice, one week apart, one day after I-394) was “some regression of tumor volume, and increase in mice survival”.

Source: US20190218304A1, “POTENTIATING THE EFFECT OF ATP RELEASE” (INNATE PHARMA, priority 2017, published 2019)
